What all share (type): biochemical
One assay deals with aXa (Homo sapiens, UniProt P00742). Description: aXa-activity, chromogenic substrate s2222. The conditions noted are these: measured after 90 minutes, expressed as molar concentration. As to the method: (§1) The inhibition of human thrombin was investigated by continuously monitoring the splitting of the chromogenic substance S 2238 (N-D-Phe-L-pipecolyl-L-Arg-p-nitro-anilide 2 HCl) in the absence and in the presence of 3, 1, 0.3, 0.1 and 0.03 mM of the compound investigated. These measurements were performed with the help of a kinetic microtiter plate reader. From these measurements the end absorbances were calculated after 90 minutes. Based on these total scores, an IC50 of the various compounds investigated is expressed as the molar concentration which inhibited the end absorbance by 50%. IC50 values for aXa-activity were investigated in the same way by using the chromogenic substrate s2222 (N-benzoyl-Ile-Glu-(OCH3)Gly-Arg-pNa).
Sequence of aXa (P00742 41-179 limits assumed): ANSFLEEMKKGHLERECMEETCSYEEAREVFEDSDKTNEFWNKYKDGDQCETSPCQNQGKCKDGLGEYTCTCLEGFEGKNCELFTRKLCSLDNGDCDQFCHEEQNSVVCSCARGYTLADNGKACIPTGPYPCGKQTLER
Sequence of aXa (P00742 235-488 limits assumed): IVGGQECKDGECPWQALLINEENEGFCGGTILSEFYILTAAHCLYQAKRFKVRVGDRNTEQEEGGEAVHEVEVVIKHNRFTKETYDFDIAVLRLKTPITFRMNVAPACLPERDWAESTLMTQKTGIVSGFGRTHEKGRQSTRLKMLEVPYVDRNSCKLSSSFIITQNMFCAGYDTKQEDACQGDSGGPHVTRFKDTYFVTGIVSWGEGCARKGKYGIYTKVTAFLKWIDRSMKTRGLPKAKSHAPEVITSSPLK

A further assay deals with human thrombin (Homo sapiens, UniProt P00734). Description: Inhibition of human thrombin (aIIa), splitting of chromogenic substrate S 2238. The settings on record: measured after 90 minutes, expressed as the molar concentration which inhibited the end absorbance by 50%. As to the method: as §1
For another assay, the target named is T1, Factor IIa (Homo sapiens, UniProt P00734).
T1 construct: Ki [M]-Factor IIa
Description: Ki against Factor IIa. The conditions noted are these: called minimum inhibitory concentrations.

Residues, ends and D or L forms follow the SMILES beside them.

As usually defined, the IC50 is the concentration at which inhibition is half-maximal. Take `C[C@H](NC(=O)[C@H](CCCNC(=N)N)NC(=O)[C@@H]1CCCN1C(=O)[C@H](N)Cc1ccccc1)C(=O)N[C@@H](Cc1ccccc1)C(=O)N[C@@H](CCCCN)C(=O)O` [H-D-Phe-Pro-Arg-Ala-Phe-Lys-OH] (HELM PEPTIDE1{[dF].P.R.A.F.K}$$$$V2.0): the values for the IC50 at aXa and against human thrombin were 3100 µM and 110 µM, respectively.

In general, Ki refers to the equilibrium dissociation constant of an inhibitor or competing ligand from its target. Read a low Ki as a stronger hold on the target. As for `N=C(N)NCCC[C@H](NC(=O)[C@@H]1CCCN1C(=O)[C@H](N)Cc1ccccc1)C(=O)NCC(=O)O` [H-D-Phe-Pro-Arg-Gly-OH, reference compound] (HELM PEPTIDE1{[dF].P.R.G}$$$$V2.0), the IC50 amounted to 4800 µM against aXa and 4000 µM on human thrombin. Moreover, at Factor IIa, the affinity corresponds to a Ki of 70 µM.

As for `N=C(N)NCCC[C@H](NC(=O)[C@@H]1CCCN1C(=O)[C@H](N)Cc1ccccc1)C(=O)NCC(=O)N[C@@H](Cc1ccccc1)C(=O)N[C@@H](CCCCN)C(=O)O` [H-D-Phe-Pro-Arg-Gly-Phe-Lys-OH] (HELM PEPTIDE1{[dF].P.R.G.F.K}$$$$V2.0), the values for the IC50 on aXa and against human thrombin were 1600 µM and 250 µM, respectively. Besides, the Ki at Factor IIa worked out at 3.4 µM.

Regarding `N=C(N)NCCC[C@H](NC(=O)[C@@H]1CCCN1C(=O)[C@H](N)Cc1ccccc1)C(=O)NCC(=O)N[C@@H](Cc1ccccc1)C(=O)O` [H-D-Phe-Pro-Arg-Gly-Phe-OH] (HELM PEPTIDE1{[dF].P.R.G.F}$$$$V2.0), the IC50 was 1300 µM against aXa and 410 µM on human thrombin. At Factor IIa, this compound displayed a Ki of 7.6 µM.

On to `N=C(N)NCCC[C@H](NC(=O)[C@@H]1CCCN1C(=O)[C@H](N)Cc1ccccc1)C(=O)CCC(=O)O` [H-D-Phe-Pro-Arg-psi[COCH2 ]-Gly-OH], for which the Ki at Factor IIa is 26 µM.

The compound `NCCCC[C@H](NC(=O)[C@H](Cc1ccccc1)NC(=O)CCC(=O)[C@H](CCCN=C(N)N)NC(=O)[C@@H]1CCCN1C(=O)[C@H](N)Cc1ccccc1)C(=O)O` [H-D-Phe-Pro-Arg-psi[COCH2 ]-Gly-Phe-Lys-OH] (HELM PEPTIDE1{[dF].P.[N=C(N)NCCC[C@H](N[*:1])C(=O)CCC(=O)[*:2]].F.K}$$$$V2.0) came in with a Ki at Factor IIa of 0.028 µM.

Regarding `N=C(N)NCCC[C@H](NC(=O)[C@@H]1CCCN1C(=O)[C@H](N)Cc1ccccc1)C(=O)CCC(=O)N[C@@H](Cc1ccccc1)C(=O)O` [H-D-Phe-Pro-Arg-psi[COCH2 ]-Gly-Phe-OH], the IC50 came to 2100 µM against aXa and 37 µM on human thrombin. The same compound yielded a Ki on Factor IIa of 0.48 µM.

(Values after patent US5719128A, “Factor IIa inhibitors” (Akzo Nobel N.V., priority 1991, dated 1998).)
